Assay [1] relates to Oocyte. The assay can be described thus: Activity at rat GABAA alpha-1-beta-2-gamma-2L receptor expressed in Xenopus lavies oocytes assessed as ratio of effect on current at 10 uM drug to absence of compound by electrophysiology method. It is filed as cell-based.
Assay [2] concerns Xenopus laevis. Description: Anesthetic effect on Xenopus lavies tadpole assessed as loss of righting reflex. The format is functional.
For assay [3], the system named is Oocyte. Description: Activity at rat GABAA alpha-1-beta-2-gamma-2L receptor expressed in Xenopus lavies oocytes assessed as ratio of effect on current at 0.1 uM drug to absence of compound by electrophysiology method. The format is cell-based.
Assay [4] is described as follows: Displacement of [35S]TBPS from GABAA receptor in rat brain membrane. The format is cell membranes.
Assay [5] has as its system Oocyte. Description: Activity at rat GABAA alpha-1-beta-2-gamma-2L receptor expressed in Xenopus laevis oocytes assessed as gating effect at 10 uM by electrophysiology method. It is filed as cell-based.
The test system of assay [6] is HEK293. Description: (§1) Activity at rat GABAA alpha-1Q241L/Y410F receptor mutant expressed in HEK293 cells assessed as macroscopic current amplitude by electrophysiological method. It is filed as cell-based.
Assay [7] is described as follows: as §1. It is filed as cell-based.
Assay [8] has as its system HEK293. The assay can be described thus: (§2) Activity at rat GABAA alpha-1-beta-2-gamma-2L receptor expressed in HEK293 cells assessed as macroscopic current amplitude by electrophysiological method. The format is cell-based.
The nature of assay [9]: as §2. The format is cell-based.
Assay [10] relates to Oocyte. Description: Activity at rat GABAA alpha-1-beta-2-gamma-2L receptor expressed in Xenopus lavies oocytes assessed as ratio of effect on current at 1 uM drug to absence of compound by electrophysiology method. It is filed as cell-based.
Assay [11] deals with Xenopus laevis. Description: Anesthetic effect on Xenopus lavies tadpole assessed as loss of swimming reflex. It is filed as functional.
Assay [12] concerns Xenopus laevis. Description: Anesthetic effect on Xenopus lavies tadpole assessed as loss of swimming reflex at 10 uM. The format is functional, organism-based.

Activity calls are given as the source filed them. No cut-off for these calls is given here.

The term IC50 denotes the midpoint of a concentration-inhibition curve. Higher therefore signals weaker potency. What is called EC50 is the concentration giving half of the maximal effect.

As for `C[C@]12CC[C@@H](O)C[C@@H]1CC[C@@H]1[C@@H]2CC[C@@]2(C)[C@H]1CC[C@@]21CO1`, the Ratio in assay [1] worked out at 33.7; in assay [3], 3.11; in assay [5], 0.22; in assay [10], 21.9. In addition, the results for the ED50 in [2] and in assay [11] were 1350 nM and 2760 nM, respectively. In addition, the IC50 in [4] was 110 nM. For the same compound, the results for the Activity in [6] and in assay [8] were 251% and 269%, respectively. In addition, the EC50 in assay [7] worked out at 130 nM; in [9], 440 nM.
For the compound `C[C@]12CC[C@@H](O)C[C@@H]1CC[C@@H]1[C@@H]2CC[C@]2(C)C(=O)CC[C@@H]12` [ANDROSTERONE], the Ratio in assay [1] turned out to be 5.44; in assay [3] it was 0.97; in assay [5], 0.02; in assay [10], 1.41. Moreover, in [2], the ED50 worked out at 3380 nM. Besides, the IC50 in assay [4] stood at 410 nM. Also, the result in assay [12] was inactive.
`C[C@]12C[C@H]3CC[C@@H]4C[C@@H](O)CC[C@H]4[C@@H]3C[C@@H]1CC[C@@]21CO1`: the Ratio in assay [1] was determined as 29.7; in [3], 2.16; in [5] it was 0.15; in [10], 15.7. For the same compound, the ED50 in assay [2] was 200 nM; in assay [11], 870 nM. In [4], this compound came in with an IC50 of 40 nM. Further, the Activity in [6] amounted to 220%; in assay [8] it was 262%. Besides, the EC50 in assay [7] is 130 nM; in assay [9], 340 nM.
Regarding `C[C@]12C[C@H]3CC[C@H](CCO)C[C@@H]3C[C@@H]1CC[C@@]21CO1`, the Ratio was determined as 5.37 in assay [1], 0.86 in [3], 0.03 in assay [5] and 1.54 in assay [10]. In [2], the ED50 came out at 3460 nM. This compound also had an IC50 in assay [4] of 1170 nM. The outcome in assay [12] was inactive.
For the compound `C[C@]12CC[C@@H]3C[C@H](CCO)CC[C@H]3[C@@H]1CC[C@@]21CO1`, the Ratio was 20 in [1], 1.1 in assay [3], 0.04 in [5] and 4.11 in assay [10]. Moreover, the ED50 in [2] was 3170 nM; in assay [11], 5480 nM. Moreover, the IC50 in assay [4] was determined as 1580 nM.
With `C[C@]12C[C@H]3C[C@H]4CC[C@@H](O)C[C@@H]4C[C@@H]3C[C@@H]1CC[C@@]21CO1`, the Ratio turned out to be 26.3 in [1], 1.53 in assay [3], 0.16 in assay [5] and 10.8 in assay [10]. Besides, the ED50 is 480 nM in assay [2] and 1730 nM in assay [11]. The compound also gave an IC50 in [4] of 60 nM. Further, the Activity is 237% in assay [6] and 294% in [8]. Besides, the concentration giving a half-maximal response (EC50) in assay [7] worked out at 390 nM; in [9] it was 410 nM.
Turning to `C[C@]12C[C@H]3CC[C@@H]4C[C@@H](O)CC[C@H]4[C@@H]3C[C@@H]1CCC2=O`, the Ratio in [1] amounted to 6.14; in assay [3] it was 0.92; in assay [5], 0.05; in assay [10], 1.32. Besides, the ED50 in assay [2] worked out at 3170 nM. In [4], this compound gave an IC50 of 1440 nM. The outcome in assay [12] was inactive.
Consider `C[C@]12C[C@H]3CC[C@H](CCO)C[C@@H]3C[C@@H]1CCC2=O`, for which the Ratio in assay [1] is 2.42; in assay [3] it was 1; in [5] it was -0.02; in assay [10], 1. In assay [2], the ED50 was 4010 nM. Moreover, in assay [4], the concentration for half-maximal inhibition (IC50) worked out at 5010 nM. In assay [12], the result was inactive.
Regarding `C[C@]12C[C@H]3C[C@H]4CC[C@@H](O)C[C@@H]4C[C@@H]3C[C@@H]1CCC2=O`, the Ratio in assay [1] worked out at 28.4; in assay [3], 1.1; in assay [5] it was 0.28; in assay [10], 5.03. Moreover, the results for the ED50 in [2] and in [11] were 1860 nM and 5480 nM, respectively. This compound came in with an IC50 in assay [4] of 250 nM.
`C[C@]12CC[C@@H]3C[C@H](CCO)CC[C@H]3[C@@H]1CCC2=O`: the Ratio in [1] was 1.05; in [3], 0.99; in [5] it was 0.03; in assay [10], 1.03. Further, the ED50 in assay [2] turned out to be 16400 nM. In addition, the IC50 in assay [4] came to 4170 nM. The outcome in assay [12] was inactive.

The values above are taken from ChEMBL document CHEMBL1143225, “Neurosteroid analogues. 14. Alternative ring system scaffolds: GABA modulatory and anesthetic actions of cyclopenta[b]phenanthrenes and cyclopenta[b]anthracenes” (J Med Chem, 2008).
